# Test results: ChEMBL document CHEMBL2040793, “Thieno[3,2-c]pyran-4-one based novel small molecules: their synthesis, crystal structure analysis and in vitro evaluation as potential anticancer agents” (Bioorg Med Chem Lett, 2012)
# Tests used:
# K562 [1] = assay: Growth inhibition of human K562 cells at 10 uM after 24 hrs by MTT assay; type: functional; conditions: K562, 24 h, read-out: GI
# MDA-MB-231 = assay: Growth inhibition of human MDA-MB-231 cells at 10 uM after 24 hrs by MTT assay; type: functional; conditions: MDA-MB-231, 24 h, read-out: GI
# HepG2 [2] = assay: Growth inhibition of human HepG2 cells at 10 uM after 24 hrs by MTT assay; type: functional; conditions: HepG2, 24 h, read-out: GI
# [3] = Growth inhibition of human HEK293 cells at 10 uM after 24 hrs by MTT assay; type: cell-based; conditions: read-out: GI
# K562 [4] = assay: Cytotoxicity against human K562 cells after 24 hrs by MTT assay; type: functional, cell-based; conditions: K562, 24 h
# HepG2 [5] = assay: Cytotoxicity against human HepG2 cells after 24 hrs by MTT assay; type: functional, cell-based; conditions: HepG2, 24 h
# Saccharomyces cerevisiae = assay: Inhibition of yeast SIRT2 assessed as derepression of Ura3 gene at 50 uM in presence of 5-fluoroorotic acid
# HepG2 [6] = assay: Ratio of doxorubicin IC50 to compound IC50 for human HepG2 cells; type: functional
inhibition (Saccharomyces cerevisiae) [%],SMILES,inhibition of growth at 10 µM (K562 [1]) [%],inhibition of growth at 10 µM (MDA-MB-231) [%],inhibition of growth at 10 µM (HepG2 [2]) [%],"inhibition at 24 h, 10 µM [3] [%]",IC50 (K562 [4]) [nM],IC50 (HepG2 [5]) [nM],Ratio IC50 (HepG2 [6])
–,O=c1oc(-c2ccccc2)c(I)c2sc3c(c12)CCCCC3,30.3,40.1,12,0.23,–,–,–
–,CC(C)(O)C#Cc1c(-c2ccccc2)oc(=O)c2c3c(sc12)CCCCC3,9.32,21.6,25,4.2,–,–,–
30,Cc1ccc(-c2oc(=O)c3c4c(sc3c2I)CCCC4)cc1,64.2,32.5,68.2,0,2330,2380,>2
–,Cc1ccc(NC(=O)c2ccc(CN3CCN(C)CC3)cc2)cc1Nc1nccc(-c2cccnc2)n1 [IMATINIB],–,–,–,–,100,–,–
30,CCCCC#Cc1c(-c2ccccc2)oc(=O)c2c3c(sc12)CCCCC3,66.4,25.2,24.1,3.2,2280,–,–
–,O=c1oc(-c2ccccc2)c(C#Cc2ccccc2)c2sc3c(c12)CCCCC3,13.9,34.7,20.1,1.7,–,–,–
–,CCOC(=O)/C=C/c1c(-c2ccccc2)oc(=O)c2c3c(sc12)CCCCC3,27.4,42.6,12,1.11,–,–,–
–,O=c1oc(-c2ccccc2)c(-c2ccccc2)c2sc3c(c12)CCC3,26.7,12.4,13.4,4,–,–,–
–,O=c1oc(-c2ccccc2)c(-c2ccccc2)c2sc3c(c12)CCCCC3,24,7.42,35.9,0.01,–,–,–
–,CC(C)(C)OC(=O)N1CCc2c(sc3c(I)c(-c4ccccc4)oc(=O)c23)C1,8.34,27.5,15.5,9.03,–,–,–
–,O=c1oc(-c2ccccc2)c(-c2ccc(O)cc2)c2sc3c(c12)CCCC3,9.85,22.9,23,0.5,–,–,–
–,CCCCCC#Cc1c(-c2ccccc2)oc(=O)c2c3c(sc12)CCCCC3,12.3,41.9,24.8,0.44,–,–,–
–,O=c1oc(-c2ccccc2)c(I)c2sc3c(c12)CCCC3,38.1,22.7,0,0.6,–,–,–
